Reference: US4228150A, “Method of inhibiting dextransucrase and oral compositions for use therein” (Iowa State University Research Foundation, Inc., priority 1979, dated 1980)

Tested on: dextransucrase
Experiment: Inhibition of dextransucrase synthesis of dextran from 14C-sucrose (radioactive polysaccharide on paper, slope versus control)
Type: biochemical, bacteria
Details: compared to 6,1',6'-trifluorosucrose
Description: Dextransucrase was obtained from the culture supernatant of bacteria. Various amounts (6 to 30 mg/ml) of the fluorosucrose mixture prepared as in Example I were added to the enzyme (3 units/ml)* and allowed to incubate 10 minutes. At the end of this time, the enzyme was assayed by adding 1/2 volume of 0.3 M ^14 C-(U)-sucrose to the fluorosucrose-enzyme solution; equal aliquots were withdrawn with time and spotted onto 1.5×1.5 cm squares of Whatman 3 MM paper, which were immediately dropped into 20 ml anhydrous methanol. Three 200 ml volumes of methanol were added in 15 min. intervals. The papers were then removed, dried, and the radioactivity determined in a liquid scintillation spectrometer. The amount of radioactivity (polysaccharide formed) was plotted against the reaction time with sucrose (time of aliquot removed). The slopes of the resulting lines were determined and the percent inhibition calculated from the ratio of the slopes of the inhibited reactions to the slope of a control in which no inhibitor was added.
*Units are in terms of International Enzyme Units, that is, the amount of enzyme that will incorporate one micromole of monomer into polysaccharide per minute under conditions of optimum temperature and pH.

Compound: O[C@@H]1[C@@H](O)[C@@H](O[C@]2(CCl)O[C@H](CCl)[C@@H](O)[C@@H]2O)O[C@H](CCl)[C@H]1O [6,1',6'-trichlorosucrose]
- effectiveness as an inhibitor for dextran: relatively ineffective
